Measured values taken from US5962415A, “Compositions comprising a peptide inhibitor of nuclear protein translocation and an immunosuppressant and methods of use thereof” (Bristol-Myers Squibb Co., priority 1998, dated 1999).
Where a SMILES comes first, the peptide text is derived from it. Where no end group is shown, it is not given here. [ ]: non-standard residue; d: D form.

Assays:
HIV-1 primary isolate M1 = experiment: Infection of anti-CD3 activated PBMCs with HIV-1 primary isolate M1; format: cell-based; conditions: seven days, compared to untreated but activated cultures
Method: (§1) HIV-1 M1 p24 levels were assayed using the procedures described in Smithgall et al (1995) AIDS Res. and Human Retrovirus 11:885. Proviral DNA content (gag) was measured using polymerase chain reaction analysis as described in Smithgall et al. (1995), supra.
PBMCs were obtained washed, cultured, and infected with HIV-1 as described in Dubrovsky et al. (1995) Mol. Med. 1:217-230). PBMCs from a seronegative donor were collected and depleted of CD8^+ T cells by negative selection. The cells were activated with an anti-CD3 monoclonal antibody prepared according to the method described in Wee et al. (1993) J. Exp. Med. 177:219 and incubated for 3 hr with the HIV-1MEM polypeptide. The cells were then incubated with M1 virus isolated from PBMC collected from HIV-infected donors in the presence of inhibitors for 2 hr. The virus was washed out, and the cultures supplemented with the appropriate inhibitor and allowed to incubate for seven days. Virus production was determined by measuring the p24 levels in the culture supernatant (FIG. 6B) and contrasted with the effect of the polypeptide on cell proliferation (FIG. 6A), which virus load was determined by polymerase chain reaction analysis of proviral DNA content (gag) (FIG. 6C). The MEM peptide represents the FGF membrane translocating portion of the HIV-1MEM polypeptide.

[1] = tested on: HIV-M1 virus in Jurkat human leukemia T-cells; experiment: Infection of Jurkat T-cells with HIV-M1 virus (PCR of HIV-1 DNA); format: cell-based; conditions: 2 μM, 4 hr preincubation, day 3, FIG. 7
Method: as §1
(§2) H9 and Jurkat cells were incubated with the HIV-1MEM polypeptide (2,μM) or the control MEM peptide for 4 hr prior to addition of HIV-M1 virus. Cells were harvested on day 3 following injection and the level of HIV-1 DNA evaluated by polymerase chain reaction.

[2] = tested on: HIV-M1 virus in H9 human lymphoma T-cells; experiment: Infection of H9 T-cells with HIV-M1 virus (PCR of HIV-1 DNA); format: cell-based; conditions: 2 μM, 4 hr preincubation, day 3, FIG. 7
Method: as §1, §2

[3] = tested on: 70Z/3 murine leukemia pre-B cells; experiment: LPS-stimulated surface antigen expression (κ Ig light chain, IL-2 receptor, CD45) in 70Z/3 cells; format: cell-based; conditions: for potency and efficacy of L- versus D-amino acid form, LPS-stimulated κ Ig expression: FIG. 3
Method: Expression of κ Ig, CD45, CD40, and the interleukin-2 receptor was assayed using standard enzyme-linked immunosorbent assays ("ELISAs") (see, Coligan et al. (eds.) (1991) Current Protocols in Immunology, Wiley & Sons, p. 2.10 or by FACS staining to measure cell-surface markers as described in Raff (1970) Immunology 19:637). Antibodies form cell surface markers were obtained from Pharmingen Co.
The effect of the SV40MEM polypeptide was compared with two additional polypeptides, […] (SEQ ID NO:2) (the "HIV-1MEM" polypeptide), which is composed of the membrane translocation domain of FGF flanked by the NLS from the HIV-1 matrix protein and […] (SEQ ID NO:3) (the "C-MYCMEM" polypeptide), which contains the NLS from the human c-myc oncoprotein (Chelsky et al. (1989), supra, and Dang et al. (1988), supra) using murine 70Z/3 pre-B cells.
Murine 70Z/3 cells (ATCC TlD-158) are a model cell line for analyzing the effects of compounds on B-cell differentiation. In response to S. typhosa LPS (Difco) or γ-interferon, these cells differentiate from surface κ immunoglobulin negative to κ Ig positive.
[…] of: (1) a peptide containing only the FGF signal sequence AAVALLPAVLLALLAP (SEQ ID NO:4) (the "MEM" peptide); (2) a polypeptide having the FGF signal sequence and the NLS of NF-κB p50 on the carboxy terminus of the signal sequence, namely, the NF-κBMEM polypeptide; (3) the SV40MEM polypeptide comprised of L-amino acids; or (4) the SV40MEM polypeptide comprised of D-amino acids. The cells were then incubated with LPS as described in Example 2 and assayed for expression of κ light chain expression.

HIVLAI in Jurkat cells = experiment: Nuclear translocation of HIV genome in Jurkat cells infected with HIVLAI (gag and 2-LTR circle PCR); format: cell-based, HIV-1; conditions: SV40MEM 0.1 and 1.0 μM, NF-κBMEM 10 μM, 24 hr
Method: as §1
2-LTR circles, a strictly nuclear form of HIV-1 DNA the expression of which indicates nuclear localization of the viral genome, was measured by as described in Bukrinsky et al (1991) Science 254:423.
Jurkat cells were incubated with the SV40MEM polypeptide for 3 hr with HIVLAI for 1-2 hr. The virus was washed out and the cultures supplemented with the appropriate inhibitor (SV40MEM, 0.1,μM and 1.0 μM; NF-κBMEM, 10 μM). After 24 hr, the cells were collected, lysed and evaluated for HIV-1 DNA by polymerase chain reaction analysis of gag sequences (see FIG. 8A) and 2-LTR circles (see FIG. 8B).

[4] = tested on: THP-1 human monocytic cells; experiment: LPS-stimulated cytokine (TNF-α, IL-8) production in THP-1 cells; format: cell-based; conditions: 5 μM, 5 hr LPS stimulation, FIG. 4A
Method: Amounts of TNF-α, IL-6, IL-8 and IL-10 were determined using the ELISA kits obtained from Genzyme following the manufacturer's instructions.
THP-1 control cells were harvested, washed and set up in RPMI 1640, 10% fetal calf serum, at a concentration of 2.56×10^6 cells/ml. Phosphate buffered saline ("PBS") or one of the two respective polypeptides SV40MEM or SV40 (a peptide having only the SV40 large T antigen NLS sequence) were added to the cells at a concentration of 10 μM or 20 μM. The cells were then plated into a 96-well plate with 0.1 ml/well. The plate was then incubated for 2 hr at 37° C. in a 5% CO2 atmosphere. Following the initial incubation, media or a titration of LPS was added to each of the wells in a volume of 0.1 ml. Thus, the final concentrations of polypeptides were 5 μM or 10 μM. Following 5 hr of LPS stimulation, supernatants were taken and TNF-α and IL-8 levels were determined by ELISA. In addition, cells treated with PBS or polypeptides, but not incubated with LPS, were removed at the time of supernatant removal to determine the viability of the cells following 7 hr of contact with the polypeptides.
This experiment was conducted to compare the inhibitory effect of the SV40MEM polypeptide and other inhibitory polypeptides on LPS induction of cytokine production. THP-1 control cells (ATCC 9/95 stock) were harvested, washed and set up in RPMI 1640, 10% fetal calf serum as described in Example 2. The cells were incubated for 2 hr with PBS or (1) the FGF signal sequence, (2) a polypeptide having the FGF signal sequence and the NLS of NF-κB p50 on the carboxy terminus of the signal sequence, (3) the SV40MEM polypeptide comprised of L-amino acids, or (4) the SV40MEM polypeptide comprised of D-amino acids at a final concentration of 5 μM. The cells were then plated into a 96-well plate with 0.1 ml/well. The plate was then incubated for 2 hr at 37° C. in a 5% CO2 atmosphere. Following the initial incubation, media or a titration of LPS was added to each of the wells in a volume of 0.01 ml/well. Following 5 hr of LPS stimulation, supernatants were taken and TNF-α levels were determined by ELISA.

Murine 70Z/3 B-cells = experiment: Proliferation of 70Z/3 murine B-cell leukemia cells; format: cell-based; conditions: 0.2 μM (lowest concentration), 48 hr, FIG. 9
Method: Murine 70Z/3 B-cells were treated with 0, 0.2, 0.5, 1, or 2 μM […] prepared from D-amino acids. On day 0, the cell concentrations of the control and treated cells were the same. After 48 hr of exposure to the peptide, the treated cells were again counted and compared to control cells.

Human RAJI B-cells = experiment: Proliferation of RAJI human B-cell leukemia cells; format: cell-based; conditions: 5 μM (lowest concentration), 48 hr, FIG. 10
Method: Human RAJI B-cells were treated with 0, 5, 10 or 25 μM SV40MEM prepared from D-amino acids. On day 0, the cell concentrations of the control and treated cells were the same. After 48 hr of exposure to the peptide, the treated cells were again counted and compared to control cells.

CD14 = experiment: LPS binding to CD14 (plate assay with soluble CD14 Ig); conditions: E. coli AO16 LPS, 2 hours at 4° C., FIG. 14
Method: 96-well plates were coated with goat-anti human Ig, soluble CD-1 4 Ig was added, and the plates were incubated overnight at 4° C. The BMS polypeptide, the C-MYCMEM polypeptide, an SV40 NLS polypeptide containing a single SV40 large T-antigen NLS, a c-myc NLS without a translocation sequence (AKRVKL (SEQ ID NO:6)), a control non-NLS polypeptide, 377G, or PBS, were added to the plates and the plates were incubated for 5 min. E. coli AO16 LPS was then added to the plates and the plates were incubated for 2 hours at 4° C. The plates were washed and LPS was detected using 0.5 μg/ml mouse anti-E. coli LPS, followed by goat anti-mouse horseradish peroxidase.

KKKYKAAVALLPAVLLALLAKKKYKC [HIV-1MEM, membrane translocation domain of FGF flanked by the NLS from the HIV-1 matrix protein]
virus production (p24 levels in culture supernatant) (HIV-1 primary isolate M1; FIG. 6B): significantly reduced
virus load (PCR of proviral DNA content, gag) (HIV-1 primary isolate M1; FIG. 6C): significantly reduced
infection (level of HIV-1 DNA by PCR) [1]: inhibited infection
infection (level of HIV-1 DNA by PCR) [2]: inhibited infection
efficacy at inhibiting κ Ig light chain production (comparison of three polypeptides) ([3]; dose-response data, FIG. 1B): approximately equally efficacious
potency at inhibiting κ Ig light chain production compared with SV40MEM ([3]; dose-response data, FIG. 1B): not as potent

CSCC[C@H](NC(=O)[C@H](CC(C)C)NC(=O)[C@H](CCCCN)NC(=O)[C@H](CCC(N)=O)NC(=O)[C@H](CCCNC(=N)N)NC(=O)[C@H](CCCCN)NC(=O)[C@H](CCCNC(=N)N)NC(=O)[C@H](CCC(N)=O)NC(=O)[C@@H](NC(=O)[C@@H]1CCCN1C(=O)[C@H](C)NC(=O)[C@H](CC(C)C)NC(=O)[C@H](CC(C)C)NC(=O)[C@H](C)NC(=O)[C@H](CC(C)C)NC(=O)[C@H](CC(C)C)NC(=O)[C@@H](NC(=O)[C@H](C)NC(=O)[C@@H]1CCCN1C(=O)[C@H](CC(C)C)NC(=O)[C@H](CC(C)C)NC(=O)[C@H](C)NC(=O)[C@@H](NC(=O)[C@H](C)NC(=O)[C@H](C)N)C(C)C)C(C)C)C(C)C)C(=O)N1CCC[C@H]1C(N)=O [NF-κBMEM]
viral internalization / virus entry (gag sequences) (HIVLAI in Jurkat cells; FIG. 8A): no effect
translocation of the viral genome into the nucleus (2-LTR circles) (HIVLAI in Jurkat cells; FIG. 8B): no effect
LPS-induced TNF-α expression [4]: did not significantly inhibit

PKKKRKVAAVALLPAVLLALLAPKKKRKVC-NH2 (C-terminus assumed) [SV40MEM (L-amino acid form)]
LPS-induced TNF-α expression [4]: significantly inhibited
potency and efficacy of L- versus D-amino acid form, LPS-stimulated κ Ig expression [3]: equally potent and efficacious

CC(C)C[C@@H](NC(=O)[C@@H](C)NC(=O)[C@@H](CC(C)C)NC(=O)[C@@H](CC(C)C)NC(=O)[C@H](NC(=O)[C@@H](C)NC(=O)[C@H]1CCCN1C(=O)[C@@H](CC(C)C)NC(=O)[C@@H](CC(C)C)NC(=O)[C@@H](C)NC(=O)[C@H](NC(=O)[C@@H](C)NC(=O)[C@@H](C)NC(=O)[C@H](NC(=O)[C@@H](CCCCN)NC(=O)[C@@H](CCCNC(=N)N)NC(=O)[C@@H](CCCCN)NC(=O)[C@@H](CCCCN)NC(=O)[C@@H](CCCCN)NC(=O)[C@H]1CCCN1)C(C)C)C(C)C)C(C)C)C(=O)N[C@H](CC(C)C)C(=O)N[C@H](C)C(=O)N1CCC[C@@H]1C(=O)N[C@H](CCCCN)C(=O)N[C@H](CCCCN)C(=O)N[C@H](CCCCN)C(=O)N[C@H](CCCNC(=N)N)C(=O)N[C@H](CCCCN)C(=O)N[C@@H](C(=O)N[C@H](CS)C(N)=O)C(C)C [SV40MEM (D-amino acid form)] (H-[dP][dK][dK][dK][dR][dK][dV][dA][dA][dV][dA][dL][dL][dP][dA][dV][dL][dL][dA][dL][dL][dA][dP][dK][dK][dK][dR][dK][dV][dC]-NH2; N-terminus and C-terminus assumed)
LPS-induced TNF-α expression [4]: significantly inhibited
proliferation (cell count versus control) (Murine 70Z/3 B-cells): inhibited
proliferation (cell count versus control) (Human RAJI B-cells): inhibited
potency and efficacy of L- versus D-amino acid form, LPS-stimulated κ Ig expression [3]: equally potent and efficacious
efficacy at inhibiting κ Ig light chain production (comparison of three polypeptides) ([3]; dose-response data, FIG. 1B): approximately equally efficacious

AKRVKL [c-myc NLS, reference compound]
binding of LPS to CD14 (CD14): did not block binding
